In patent US4533655A, “Analgesic dipeptide amides and method of use and compositions thereof” (Sterling Drug Inc., priority 1982, dated 1985):

Key:
[1] = system: Male Swiss-Webster mice; assay: Mouse acetylcholine writhing test; format: in vivo; settings: 20 min, subcutaneous, acetylcholine 3.2 mg./kg. i.p. 20 min after dosing, 95% confidence limits in parentheses
Experimental: Male Swiss-Webster mice each weighing 18-24 g. are treated subcutaneously (10 ml./kg. injection volume) or orally with the test compound in an aqueous vehicle. Twenty minutes thereafter each mouse is injected intraperitoneally with acetylcholine (3.2 mg./kg.) in aqueous sodium chloride (0.9%). This dose of acetylcholine causes one or more characteristic writhes in the two minute period following injection in control mice which receive the aqueous vehicle not containing the test compound. […] Test compounds are screened at doses of 100 and 30 mg./kg. subcutaneously and 300 and 100 mg./kg. orally using 15 mice at each dose level. ED50 values for active compounds are estimated by probit analysis of quantal scores at four or more dose levels using 15 mice at each dose level.

[2] = system: guinea pig ileum longitudinal muscle (electrically induced twitch); assay: Guinea pig ileum test; format: cell-based; settings: ratio of IC50 of reference Met^5-enkephalin to IC50 of test compound in same preparation, averaged (N=4); Met^5-enkephalin = 100
Experimental: Adult male guinea pigs (Charles River, Hartley strain) weighing 300-500 g. are decapitated, and the terminal ileum is exposed by reflecting the overlying cecum, severed at the ileocecal juncture, and removed while cutting the mesenteric attachments to avoid excessive traction on the tissue. The ileum (about 30 cm. in length) is transferred to a beaker containing warm modified Krebs-Henseleit solution (118 mM sodium chloride, 4.75 mM potassium chloride, 2.54 mM calcium chloride, 1.19 mM potassium dihydrogen phosphate, 1.2 mM magnesium sulfate, 25 mM sodium bicarbonate, 11 mM glucose, 20 μM choline chloride and 0.125 μM pyrilamine maleate). The terminal (aboral) portion (about 10 cm. in length) is discarded, and segments (3-4 cm. in length) are cut from the remainder and gently slid onto a glass rod (5-6 mm. in diameter) and arranged so that the mesenteric attachment is in a straight line. A cotton swab moistened in the solution is then carefully used to separate the longitudinal muscle from the underlying circular muscle. The longitudinal muscle and adhering myenteric plexus is then gently removed from the remaining tissue with forceps.
Strips of this prepared longitudinal muscle are mounted in a double-jacketed organ bath (5 ml.) under tension (1.0 g.), connected to isometric transducers (Grass FT 0.03), bathed in the modified Krebs-Henseleit solution described above, aerated with oxygen-carbon dioxide (95:5) and maintained at 37° C.
Stimulators (Grass S-44) are set to deliver repetitive monophasic square wave field stimulation (supramaximal voltage, 0.10 Hz., 0.25 msec. duration) through platinum ring electrodes at the top and bottom of the bath. Regular contractions of the muscle, which result from electrically-induced liberation of acetylcholine from postganglionic parasympathetic nerves, are recorded on a polygraph (Grass model 5). Following tissue equilibration (45-60 min.) and repeated washing (every 10 min.) an aqueous solution of a reference or test compound is added to the bath in a microliter volume (1.25-250 μl) and reductions in muscle twitch height are recorded. More compound can be added […] first washing the preparation.
From the results a half-mazimal inhibitory concentration (IC50) value for the compound is computed by regression analysis of a linear plot of logarithm of concentration against percent of inhibition of twitch height (probits). The ratio of the IC50 value of a reference compound to that of a test compound tested in the same preparation is the molar potency ratio. Usually four preparations are tested simultaneously by the same person (N=4), and the resulting four molar potency ratios are averaged.
The following results were obtained using the examples as test compounds and Met^5 -enkephalin as the reference compound.

[3] = system: rat; settings: rat tail flick, relative to morphine, cited from earlier work
[4] = system: mouse vas deferens; settings: cited from earlier work
[5] = system: guinea pig ileum; settings: cited from earlier work

Row | Compound | ED50 [1] | Average Molar Potency Ratio [2] | also measured
1 | C[C@H](C(=O)NCCCc1ccccc1)N(C)C(=O)[C@@H](N)Cc1ccc(O)cc1 [Example 1, L-tyrosyl-N^2-methyl-N-(3-phenylpropyl)-D-alaninamide] | 5.5 mg/kg | 293 | 
2 | CN[C@@H](Cc1ccc(O)cc1)C(=O)N[C@H](C)C(=O)NCCCc1ccccc1 [Example 2, N-methyl-L-tyrosyl-N-(3-phenylpropyl)-D-alaninamide] | 10 to 30 mg/kg | 194 | 
3 | CN[C@@H](Cc1ccc(O)cc1)C(=O)N(C)[C@H](C)C(=O)NCCCc1ccccc1 [Example 3, N-methyl-L-tyrosyl-N^2-methyl-N-(3-phenylpropyl)-D-alaninamide] | 9.4 mg/kg | 200 | 
4 | CCN(C(=O)[C@@H](N)Cc1ccc(O)cc1)[C@H](C)C(=O)NCCCc1ccccc1 [Example 4, L-tyrosyl-N^2-ethyl-N-(3-phenylpropyl)-D-alaninamide] |  | 12 | 
5 | C[C@H](C(=O)NCCCc1ccc(Cl)cc1)N(C)C(=O)[C@@H](N)Cc1ccc(O)cc1 [Example 5, L-tyrosyl-N^2-methyl-N-[3-(4-chlorophenyl)propyl]-D-alaninamide] |  | 51 | 
6 | C[C@H](C(=O)NCCCc1ccc(C(F)(F)F)cc1)N(C)C(=O)[C@@H](N)Cc1ccc(O)cc1 [Example 6, L-tyrosyl-N^2-methyl-N-[3-(4-trifluoromethylphenyl)propyl]-D-alaninamide] |  | 13 | 
7 | C[C@H](C(=O)NCCCc1ccc(F)cc1)N(C)C(=O)[C@@H](N)Cc1ccc(O)cc1 [Example 7, L-tyrosyl-N^2-methyl-N-[3-(4-fluorophenyl)propyl]-D-alaninamide] |  | 178 | 
8 | C[C@@H](NC(=O)[C@@H](N)Cc1ccc(O)cc1)C(N)=O [H-Tyr-D-Ala-NH2] |  |  | times less potent than morphine, intravenously ([3]; intravenous): greater than 10 times; times less potent than morphine, intraventricularly ([3]; intraventricular): 200 times
9 | C[C@@H](NC(=O)[C@@H](N)Cc1ccc(O)cc1)C(=O)NCCNCCc1ccccc1 [HTyrD-AlaNH(CH2)2 NH(CH2)2 Phenyl] |  |  | potency relative to Met-enkephaline [4]: < 1%; potency relative to Met-enkephaline [5]: < 1%
10 | Met^5 -enkephalin [reference compound] |  | 100 | 
